Reference: patent US20080131498A1, “PHARMACEUTICAL COMPOSITION, A METHOD OF PREPARING IT AND A METHOD OF TREATMENT BY USE THEREOF” (BUSULIPO AB, priority 1998, published 2008)
Several values for one entry are separate records, joined by “and”; a condition that tells them apart may be missing. Equal values may be shown once. Entries after “also recorded” stand apart in the source; their conditions may differ. Read-outs that look alike come from different tables or passages of the source.

How the values were obtained:
[1] = tested on: CFU-GM; test: Busulphan-induced myelosuppression in mice with GSH modulators, CFU-GM assay; type: in vivo, Balb/c mice; conditions: for effect of combination on the myelosuppressive effect of busulphan: NAC 1.38 mmol/kg orally or BSO 0.93 mmol/kg ip before busulphan
Method: Balb/c mice were purchased from B&K Universal Limited, Sweden. Female mice were 6 to 12 weeks old with a weight ranging from 20 to 24 g. Local animal ethical committee approved animals housing conditions and experimental design. Animals were fed with standard pelleted food and water ad libitum. […] Treatment consisted of N-acetyl-L-cysteine (1.38±0.07 mmol/kg) orally or L-buthionine-[S,R]-sulfoximine (0.93±0.03 mmol/kg) intraperitoneally followed by liposomal busulphan (37±1.4 mg/kg) intraperitoneally. Animals were sacrificed at day 1, 3, 6, 9 or 12 after the last dose of treatment.
Liposomal busulphan was used in the in vivo study and prepared as described in example 1. Liposomal busulphan was prepared freshly before each experiment and stored in refrigerator until use.
(§1) CD34+ cells were treated with NAC, BSO, DMSO or busulphan alone or in combinations, washed and 2000 cells were plated in 1.1 ml of MethoCult™ GF H4434 in 35 mm Petri dishes in triplicates. Colonies were scored on day 14 using an inverted microscope. Murine bone marrow was harvested on day 1, 3, 6, 9 or 12 after the last dose of the treatment. Control group and each treatment group consisted of a minimum of three animals at each time point. Mice were sacrificed under general anaesthesia. Both femurs were removed and bone marrow was flushed out under sterile conditions. Cells were counted in Türk solution and nucleated cells (0.5×10^5) were plated in 1.1 ml of MethoCult™ GF M3534 in 35 mm Petri dishes in triplicates. The plates were placed in incubator (37° C., 5% CO2 and 100% humidity). CFU-GM, equal to or more than 50 cells, were counted on the day 7 using an inverted microscope.

[2] = tested on: GSH intracellular content of CD34+ cells; test: GSH assay in CD34+ cells after NAC or BSO; type: cell-based, human; conditions: preincubation 16 to 18 hours, NAC 1 mM or BSO 50 μM
Method: Ten healthy volunteers were recruited after a medical interview. The study followed the guidelines of the local authorities and was approved by the local ethical committee. […] CD34+ cells were separated on a MACS system by positive selection using CD34+ Separation Kit according to the manufacturer's instructions. Cells were incubated in RPMI-1640 medium supplemented with 10% heat inactivated fetal bovine serum at 37° C. in a humidified 5% CO2 atmosphere. Cells used for pharmacodynamic study were incubated in busulphan of final concentrations of 1, 2.5, 5, 10, 20, 40 or 60 μg/ml for 2, 4 or 8 hours. Cells used for the GSH modulation part were treated with N-acetyl-L-cysteine (NAC) (1 mM) or L-buthionine-[S,R]-sulfoximine (BSO) (50 μM) for 16 to 18 hours, followed by busulphan in final concentrations of 4.5 or 10 μg/ml for 4 hours. […]
(§2) Intracellular concentrations of GSH were determined using the enzymatic assay according to Tietze (Tietze, F. Enzymic method for quantitative determination of nanogram amounts of total and oxidized glutathione: applications to mammalian blood and other tissues. Anal Biochem, 27: 502-522., 1969). Total cellular protein was assessed according to Lowry after dissolving the precipitate in 1M NaOH (Lowry, O. H., Rosebrough, N. J., Farr, A. L., and Randall, R. J. Protein measurement with the folin phenol reagent. J Biol Chem, 193: 265-275., 1951)

[3] = tested on: CFU-GM from normal CD34+ hematopoietic progenitor cells; test: Clonogenic assay of CD34+ cells, CFU-GM (Example 11); type: cell-based, human; conditions: for effect alone on colony formation of CFU-GM or erythroid colonies / effect on busulphan-induced inhibition of colony formation of CFU-GM or erythroid colonies: CD34+ cells; for effect on busulphan-induced inhibition of colony formation of CFU-GM or erythroid colonies: preincubation then busulphan 4.5 or 10 μg/ml for 4 hours
Method: (§3) Ten healthy volunteers were recruited after a medical interview. The study followed the guidelines of the local authorities and was approved by the local ethical committee. […] CD34+ cells were separated on a MACS system by positive selection using CD34+ Separation Kit according to the manufacturer's instructions. Cells were incubated in RPMI-1640 medium supplemented with 10% heat inactivated fetal bovine serum at 37° C. in a humidified 5% CO2 atmosphere. Cells used for pharmacodynamic study were incubated in busulphan of final concentrations of 1, 2.5, 5, 10, 20, 40 or 60 μg/ml for 2, 4 or 8 hours. Cells used for the GSH modulation part were treated with N-acetyl-L-cysteine (NAC) (1 mM) or L-buthionine-[S,R]-sulfoximine (BSO) (50 μM) for 16 to 18 hours, followed by busulphan in final concentrations of 4.5 or 10 μg/ml for 4 hours. After incubation, cells were washed and plated for clonogenic assay.
as §1

[4] = tested on: GSH intracellular level of P39 cells; test: GSH assay in P39 cells after NAC or BSO; type: cell-based, human
Method: (§4) The P39 cell line was kindly provided by Prof Y. Yoshida, Center for South East Asian Studies, Kyoto University, Kyoto, Japan. Cells were cultured in RPMI-1640 medium supplemented with 10% heat inactivated fetal bovine serum (FBS), penicillin (25 IU/ml) and streptomycin (25 μg/ml) at 37° C. in a humidified 5% CO2 atmosphere. Exponentially growing cells were used in all experiments. Cells were incubated with N-acetyl-L-cysteine (1 mM) or L-buthionine-[S,R]-sulfoximine (50 μM) for 16 to 18 hours and then with busulphan in final concentrations of 10, 20 or 40 μg/ml for 4 hours. After incubation, cells were washed and re-cultured in busulphan-free medium for 72 hours.
as §2

[5] = tested on: myeloid P39 cell line; test: Proliferation, clonogenicity and apoptosis in P39 cells; type: cell-based, human; conditions: for effect on proliferation of busulphan treated P39 cells ([^3H]thymidine incorporation) / effect on the effect of busulphan on clonogenic capacity of P39 cells / effect on levels of apoptosis induced by busulphan in P39 cells: pretreatment; for effect on the effect of busulphan on clonogenic capacity of P39 cells: busulphan 10, 20 or 40 μg/ml 4 hours; for effect on levels of apoptosis induced by busulphan in P39 cells: data not shown
Method: as §4
Proliferation was assessed using the [^3H]thymidine incorporation assay. Clonogenic capacity was determined in 0.9% methylcellulose and apoptosis with morphology in May-Grünwald-Giemsa staining as described in (Hassan, Z., Hassan, M., and Hellstrom-Lindberg, E. The pharmacodynamic effect of busulfan in the P39 myeloid cell line in vitro. Leukemia, 15: 1240-1247, 2001).

[6] = Busulphan AUC before and after NAC in patients (Example 12); type: in vivo, human patients; conditions: for AUC: plasma
Method: Busulphan was given twice daily.
Busulphan was determined using gas chromatography with electron capture detector. Internal standard (1,5-bis(methanesulphonyloxy) pentane) was added to 0.5 ml plasma. Busulphan and internal standard were converted to 1,4-diiodobutane and 1,5-diiodopentane, respectively.

[7] = NAC therapy during conditioning prior to allogeneic SCT: liver function, VOD, course of transplantation (Example 12)
Text: Ten patients, who underwent allogeneic stem cell transplantation (SCT) were included in the study. Six patients were transplanted with stem cells from matched unrelated donors, three with stem cells from HLA (Human Leukocyte Antigen) identical sibling donors and one with cord blood. The patients were included on the basis of high risk for hepatic toxicity. […] All patients had been tested negative for viral hepatitis B and C during pre-transplantation evaluation.
The initial busulphan dose given to these patients was 4 mg/kg/day. Busulphan was given twice daily. In cases of high busulphan serum concentrations the dose was reduced during conditioning as described below. […] Nine patients were given NAC during conditioning with busulphan. Treatment with NAC was given once daily as a three-hour infusion, 100 mg per kg body weight starting six hours after the previous busulphan dose and ending three hours before the following dose. The number of NAC doses given during and after busulphan treatment among the patients is described in Table 9. […] When restarted, NAC was administered not earlier than twelve hours after the end of cyclophosphamide infusion. The treatment was continued until elevated liver transaminases were normalized or, if normal transaminases at initiation of therapy, until conditioning was completed.
Tissue typing, conditioning, GVHD prophylaxis and infectious prophylaxis were performed as generally known to the skilled person. In short, the patients were treated in reversed isolation, immunosuppression consisted of four doses of methotrexate combined with cyclosporine and antithymocyte globuline, (Thymoglobulin, Sangstadt, Lyon, France), was given to recipients of unrelated stem cells.

[8] = tested on: GSH in murine hepatocytes; conditions: cited from earlier work
[9] = Half-life of busulphan in RPMI-1640 medium (in vitro pharmacokinetics); type: physicochemical; conditions: 37° C.
[10] = tested on: Erythroid colonies from normal CD34+ hematopoietic progenitor cells; test: Clonogenic assay of CD34+ cells, erythroid colonies (Example 11); type: cell-based, human; conditions: bone marrow donors BM 1-5 and Mean
Method: as §3
CD34+ cells were treated with NAC, BSO, DMSO or busulphan alone or in combinations, washed and 2000 cells were plated in 1.1 ml of MethoCult™ GF H4434 in 35 mm Petri dishes in triplicates. Colonies were scored on day 14 using an inverted microscope. […] Cells were counted in Türk solution and nucleated cells (0.5×10^5) were plated in 1.1 ml of MethoCult™ GF M3534 in 35 mm Petri dishes in triplicates. […] CFU-GM, equal to or more than 50 cells, were counted on the day 7 using an inverted microscope.

[11] = 25° C.; cited from earlier work
[12] = After NAC therapy, one line per patient
[13] = After conditioning, one line per patient

## CCCCS(=N)(=O)CC[C@H](N)C(=O)O (stereo partly drawn) [BSO, L-buthionine-[S,R]-sulfoximine]
[1]
  effect alone on CFU-GM formation compared to the control group: Neither NAC nor BSO influenced
  effect of combination on the myelosuppressive effect of busulphan: did not change the level of myelosuppression
[2]
  GSH intracellular content compared to CD34+ cells incubated in medium: 50±9% and 50%
[3]
  effect alone on colony formation of CFU-GM or erythroid colonies: did not influence
  effect on busulphan-induced inhibition of colony formation of CFU-GM or erythroid colonies: Neither did preincubation of CD34+ cells with BSO change; also recorded: no additive effect
[4]; BSO 50 μM 16 to 18 hours
  decrease of GSH compared to cells cultured in medium: 80%
[5]; alone, immediately at the end of incubation, full recovery after 24 hours
  decrease of clonogenic capacity of P39 cells: 50%
[5]; busulphan 10 μg/ml, immediately after the end of incubation
  combined effect with busulphan on P39 cells: Additive effect
[5]
  effect on proliferation of busulphan treated P39 cells ([^3H]thymidine incorporation): did not influence the proliferation
  effect on the effect of busulphan on clonogenic capacity of P39 cells: neither NAC nor BSO influenced
  effect on levels of apoptosis induced by busulphan in P39 cells: did not change the levels of apoptosis

## CC(=O)N[C@@H](CS)C(=O)O [NAC, N-acetyl-L-cysteine]
[6]; human, in vivo
  effect on busulphan serum concentrations: not affected
[1]
  effect alone on CFU-GM formation compared to the control group: Neither NAC nor BSO influenced
  effect of combination on the myelosuppressive effect of busulphan: did not significantly influence
[2]
  GSH intracellular content compared to CD34+ cells incubated in medium: 150±30%
[3]
  effect alone on colony formation of CFU-GM or erythroid colonies: did not influence
  effect on busulphan-induced inhibition of colony formation of CFU-GM or erythroid colonies: did not affect
[4]; NAC 1 mM 16 to 18 hours
  increase of GSH intracellular level compared to cells cultured in medium: 10%
[5]
  effect on proliferation of busulphan treated P39 cells ([^3H]thymidine incorporation): did not influence the proliferation
  effect on the effect of busulphan on clonogenic capacity of P39 cells: neither NAC nor BSO influenced
  effect on levels of apoptosis induced by busulphan in P39 cells: did not change the levels of apoptosis
[7]; [12]
  ALT: 0.77 ukat/L and 1.19 ukat/L and 0.61 ukat/L and 0.52 ukat/L
  AST: 0.29 ukat/L and 0.33 ukat/L and 0.42 ukat/L and 0.49 ukat/L
  Bilirubin: 9 µmol/L and 19 µmol/L and 7 µmol/L and 6 µmol/L
[7]; [13]
  ALT: 4.11 ukat/L and 3.45 ukat/L and 0.78 ukat/L and 2.24 ukat/L
  AST: 1.76 ukat/L and 1.50 ukat/L and 0.40 ukat/L and 0.82 ukat/L
  Bilirubin: 4 µmol/L and 12 µmol/L and 11 µmol/L and 6 µmol/L
[7]; Before NAC therapy, one line per patient, normal range <0.8
  ALT: 1.51 ukat/L and 2.25 ukat/L and 0.59 ukat/L and 8.10 ukat/L
[7]; Before NAC therapy, one line per patient, normal range <0.80
  AST: 0.85 ukat/L and 0.96 ukat/L and 0.38 ukat/L and 11.2 ukat/L
[7]; Before NAC therapy, one line per patient, normal range <26
  Bilirubin: 4 µmol/L and 5 µmol/L and 8 µmol/L and 3 µmol/L
[7]; Day of SCT = day 0, one line per patient
  Engraftment WBC day, ≧0.5 × 10^9/L: 13 day (2×) and 12 day (3×) and 15 day and 24 day and 10 day and 14 day and 16 day
[7]; Day of SCT = day 0, one line per patient, NAC during conditioning
  First day of WBC ≦0.5 × 10^9/L: 1 day and −1 day (2×) and −3 day and 0 day and 4 day and 5 day and 6 day and 2 day and −2 day
[7]; in vivo
  liver transferases after treatment in patients elevated at initiation: less elevated test results after treatment
  side effects related to the NAC infusions: no side effects related to the NAC infusions were observed
[7]; one line per patient
  Chimerism at 1 month post SCT: 100% donor
  Patient outcome: Died day
  Recurrence of the malignancy: No (9×) and 15 mo after
[7]; ten patients
  neutropenia: Neutropenia developed in all patients
[7]; ten patients at high risk of VOD
  VOD or fatal liver toxicity: None of the patients developed VOD or fatal liver toxicity
[7]; three months after SCT, five patients
  donor origin of hematopoietic cells (CD3+, Cd19+, CD45+) in peripheral blood: 100%

## CS(=O)(=O)OCCCCOS(C)(=O)=O [busulphan, 1,4-bis-(methanesulphonyloxy)butan]
[6]; After NAC, one line per patient
  Busulphan AUC corrected for 2 mg/kg: 10.385 µg·h/mL and 12.35 µg·h/mL and 15.23 µg·h/mL and 10.043 µg·h/mL and 19.445 µg·h/mL and 12.828 µg·h/mL
[6]; human, 2 mg/kg, Busulphan AUC corrected for 2 mg/kg, After NAC, one line per patient
  AUC: 14.8 µg·h/mL
[6]; human, oral, 4 mg/kg/day, patients no 2, 4 and 8, in this order, before NAC, read-out: AUC after the first dose of busulphan
  AUC: 20.5 µg·h/mL
[6]; human, oral, patients no 2, 4 and 8, in this order, doses reduced by 35, 15 and 30%, read-out: mean values of the AUC's during doses 4-8
  AUC: 11.4 µg·h/mL
[6]; patients no 2, 4 and 8, in this order, before NAC
  AUC after the first dose of busulphan: 15527 ng·h/mL and 16122 ng·h/mL
[6]; patients no 2, 4 and 8, in this order, doses reduced by 35, 15 and 30%
  mean values of the AUC's during doses 4-8: 10551 ng·h/mL and 12122 ng·h/mL
[1]; liposomal busulphan 37±1.4 mg/kg ip once a day for 4 days
  myelosuppression (CFU-GM colony-formation assay): stable myelosuppression on days 3 through 12
[8]; in vitro
  GSH depletion in murine hepatocytes: 50%
[8]; in vivo
  GSH depletion in murine hepatocytes: 60%
[3]; CFU-GM, bone marrow donors BM 1-5 and Mean
  I-AUC100 (AUC inhibiting colony formation by 100%): 69.33 µg·h/mL and 56.01 µg·h/mL and 74.14 µg·h/mL and 69.46 µg·h/mL and 74.38 µg·h/mL
[9]
  half-life: 16 h
  k (C=C0.e^−kt): 0.043
[10]
  I-AUC50 (AUC inhibiting colony formation by 50%): 31.54 µg·h/mL and 18.13 µg·h/mL and 24.68 µg·h/mL and 30.12 µg·h/mL and 26.96 µg·h/mL
[10]; mean
  I-AUC50 (AUC inhibiting colony formation by 50%): 26.29 µg·h/mL
[11]
  water solubility: less than 1 microgram/ml
